Experimental data reported in ChEMBL document CHEMBL1127835, “Structure-activity relationships of N6-benzyladenosine-5'-uronamides as A3-selective adenosine agonists” (J Med Chem, 1994).

Assays:
[1] = Ratio of binding affinities for A2 receptor compared to that of A3 receptor
[2] = biological target: T1, Adenosine receptor A1 (Rattus norvegicus) (UniProt P25099); settings: Brain, 10e-5 nM
T1 sequence (whole entry): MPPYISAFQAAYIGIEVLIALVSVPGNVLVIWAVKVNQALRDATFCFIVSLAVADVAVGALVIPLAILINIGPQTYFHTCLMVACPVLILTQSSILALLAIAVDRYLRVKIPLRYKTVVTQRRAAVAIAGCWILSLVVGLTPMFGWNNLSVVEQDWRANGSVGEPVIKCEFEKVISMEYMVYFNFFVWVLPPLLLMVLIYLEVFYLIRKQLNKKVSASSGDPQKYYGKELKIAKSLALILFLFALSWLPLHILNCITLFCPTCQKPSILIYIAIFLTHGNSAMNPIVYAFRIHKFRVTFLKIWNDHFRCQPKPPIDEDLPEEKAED

[3] = biological target: T2, Adenosine A2 receptor (Rattus norvegicus) (UniProt P29276+P30543); settings: Brain, 10e-5 nM
Description: Percentage inhibition against [3H]-CGS- 21680 binding to A1-adenosine receptor in rat brain at 10e-5 nM

Adenosine A2 receptor = Adenosine A2 receptor (Rattus norvegicus, UniProt P29276+P30543)
Description: Binding affinity for A2-adenosine receptor by the displacement of specific [3H]-CGS- binding in rat striatal membranes was determined

Adenosine receptor A3 [4] = biological target: T3, Adenosine receptor A3 (Rattus norvegicus, UniProt P28647); test: biochemical
T3 sequence (P28647 whole entry): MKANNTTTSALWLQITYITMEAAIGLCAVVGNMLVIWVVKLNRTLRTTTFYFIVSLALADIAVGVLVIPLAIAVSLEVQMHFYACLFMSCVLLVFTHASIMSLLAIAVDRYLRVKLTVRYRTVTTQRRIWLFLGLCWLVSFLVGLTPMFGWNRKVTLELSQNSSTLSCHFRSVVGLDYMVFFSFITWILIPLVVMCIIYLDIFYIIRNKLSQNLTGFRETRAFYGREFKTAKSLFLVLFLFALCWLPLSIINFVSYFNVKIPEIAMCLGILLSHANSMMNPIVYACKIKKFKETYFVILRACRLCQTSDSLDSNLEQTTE
Description: Binding affinity for rat A3-adenosine receptor expressed in chinese hamster ovarian cells (assayed by the displacement of specific [125I]-N6-(4-amino-3-iodobenzyl)-adenosine-5''-N-methyluronamide)

Adenosine receptor A1 = biological target: T4, Adenosine receptor A1 (Rattus norvegicus, UniProt P25099); test: biochemical
T4 sequence (P25099 whole entry): T1 sequence (whole entry)
Description: Binding affinity for A1-adenosine receptor by the displacement of specific [3H]-PIA binding in rat brain was determined

[5] = biological target: T1, Adenosine receptor A1 (Rattus norvegicus); test: Percentage inhibition against [3H]PIA binding to A1-adenosine receptor in rat brain at 1xe-4 nM; format: tissue-based
[6] = biological target: T2, Adenosine A2 receptor (Rattus norvegicus); test: Percentage inhibition against [3H]-CGS- 21680 binding to A2-adenosine receptor in rat brain at 1xe-4 nM; format: tissue-based
[7] = biological target: T1, Adenosine receptor A1 (Rattus norvegicus); test: Percentage inhibition against [3H]-PIA binding to A1-adenosine receptor in rat brain at 10e-4 nM; format: tissue-based
[8] = biological target: T2, Adenosine A2 receptor (Rattus norvegicus); test: Percentage inhibition of [3H]-CGS- 21680 binding to […] receptor in rat brain at 10e-4 nM; format: tissue-based
Adenosine receptor A3 [9] = biological target: T3, Adenosine receptor A3
Description: Binding affinity for recombinant rat A3-adenosine receptor by the displacement of specific [125I]APNEA or [125I]-N6-(4-amino-3-iodobenzyl)-adenosine-5'-N-methyluronamide

[10] = biological target: T1, Adenosine receptor A1 (Rattus norvegicus); test: Percentage inhibition against [3H]PIA binding to A1-adenosine receptor in rat brain at 10e-5 nM; format: tissue-based
[11] = biological target: T2, Adenosine A2 receptor (Rattus norvegicus); test: Percentage inhibition of [3H]-CGS- 21680 binding to […] receptor in rat brain at 10e-5 nM; format: tissue-based

Row | Structure (SMILES) | Ratio [1] | Ki (Adenosine A2 receptor) [nM] | Ki (Adenosine receptor A1) [nM] | also measured
1 | NCCNC(=O)[C@H]1O[C@@H](n2cnc3c(N)ncnc32)[C@H](O)[C@@H]1O | > 1 |  |  | inhibition [2]: 0%; inhibition [3]: 12.5%
2 | CNC(=O)[C@H]1O[C@@H](n2cnc3c(NCc4cccc(Br)c4)ncnc32)[C@H](O)[C@@H]1O | 34 | 64 |  | Ki (Adenosine receptor A3 [4]): 1.9 nM
3 | CCNC(=O)[C@H]1OC(n2cnc3c(O)ncnc32)[C@H](O)[C@@H]1O (stereo partly specified) | > 1 |  |  | inhibition [7]: 44%; inhibition [8]: 31%
4 | CCNC(=O)[C@H]1OC(n2cnc3c(N[C@@H](C)c4ccccc4)ncnc32)[C@H](O)[C@@H]1O (stereo partly specified) | 3.3 | 1650 | 65 | Ki (Adenosine receptor A3 [4]): 494 nM
5 | O=C(NC1CC1)[C@H]1OC(n2cnc3c(NCc4ccccc4)ncnc32)[C@H](O)[C@@H]1O (stereo partly specified) | 0.53 | 55 | 112 | Ki (Adenosine receptor A3 [9]): 103 nM
6 | CCNC(=O)[C@H]1O[C@@H](n2cnc3c(N)[n+](Cc4ccccc4[N+](=O)[O-])cnc32)[C@H](O)[C@@H]1[O-] | 3.1 | 83.5 | 196 | Ki (Adenosine receptor A3 [9]): 27 nM
7 | CNC(=O)[C@H]1OC(n2cnc3c(NCc4cccc(S(=O)(=O)O)c4)ncnc32)[C@H](O)[C@@H]1O (stereo partly specified) | 6.9 | 9070 | 19600 | Ki (Adenosine receptor A3 [4]): 1310 nM
8 | NC(=O)[C@H]1O[C@@H](n2cnc3c(NCc4ccccc4)ncnc32)[C@H](O)[C@@H]1O | 1.7 | 423 |  | 
9 | CNC(=O)[C@H]1OC(n2cnc3c(NCc4cccc(C(F)(F)F)c4)ncnc32)[C@H](O)[C@@H]1O (stereo partly specified) | 19 | 574 | 496 | Ki (Adenosine receptor A3 [4]): 31 nM
10 | CCNC(=O)[C@H]1O[C@@H](n2cnc3c(N[C@H](C)c4ccccc4)ncnc32)[C@H](O)[C@@H]1O | 14 | 259 |  | 
11 | CNC(=O)[C@H]1OC(n2cnc3c(NCc4cccc(NC(C)=O)c4)ncnc32)[C@H](O)[C@@H]1O (stereo partly specified) | 24 | 988 | 2970 | Ki (Adenosine receptor A3 [4]): 41.4 nM
12 | CCNC(=O)[C@H]1OC(n2cnc3c(=O)[nH]cnc32)[C@H](O)[C@@H]1O (stereo partly specified) |  |  |  | Ki (Adenosine receptor A3 [9]): 5000 nM
13 | CNC(=O)[C@H]1O[C@@H](n2cnc3c(NCc4ccc(N)c(I)c4)ncnc32)[C@H](O)[C@@H]1O |  | 197 | 18 | 
14 | CC(C)(C)OC(=O)NCCNC(=O)[C@H]1O[C@@H](n2cnc3c(N)ncnc32)[C@H](O)[C@@H]1O | > 1 |  |  | inhibition [10]: 0%; inhibition [11]: 0%
15 | CNC(=O)[C@H]1O[C@@H](n2cnc3c(O)ncnc32)[C@H](O)[C@@H]1O | > 10 |  |  | inhibition [7]: 0%; inhibition [8]: 6.2%
16 | NC(=O)[C@H]1OC(n2cnc3c(N)ncnc32)[C@H](O)[C@@H]1O (stereo partly specified) | 0.085 | 120 | 72.6 | Ki (Adenosine receptor A3 [9]): 1410 nM
17 | CCNC(=O)[C@H]1OC(n2cnc3c(N)[n+]([O-])cnc32)[C@H](O)[C@@H]1O (stereo partly specified) | 0.22 | 101 | 154 | Ki (Adenosine receptor A3 [9]): 468 nM

Now from value to molecule, other results behind:

Row | Ratio [1] | Ki (Adenosine A2 receptor) [nM] | Ki (Adenosine receptor A1) [nM] | Structure (SMILES) | also measured
18 | 55 | 609 |  | CCNC(=O)[C@H]1O[C@@H](n2cnc3c(NCc4ccc(OC)cc4)ncnc32)[C@H](O)[C@@H]1O | 
19 |  |  | 10.9 | CCNC(=O)[C@H]1OC(n2cnc3c(NCc4cccc(Br)c4)ncnc32)[C@H](O)[C@@H]1O (stereo partly specified) | Ki (Adenosine receptor A3 [4]): 2.8 nM
20 | > 100 |  |  | CNC(=O)[C@H]1OC(n2cnc3c(NCc4ccc(S(=O)(=O)O)cc4)ncnc32)[C@H](O)[C@@H]1O (stereo partly specified) | inhibition [5]: 0%; inhibition [6]: 0%; Ki (Adenosine receptor A3 [4]): 4500 nM
21 | 110 | 1590 |  | CNC(=O)[C@H]1OC(n2cnc3c(NCc4ccc(N)cc4)ncnc32)[C@H](O)[C@@H]1O (stereo partly specified) | 
22 | 8.8 | 38 |  | CCNC(=O)[C@H]1O[C@@H](n2cnc3c(NCc4cccc(OC)c4)ncnc32)[C@H](O)[C@@H]1O | 
23 | 23 | 441 | 735 | CNC(=O)[C@H]1OC(n2cnc3c(NCc4cccc([N+](=O)[O-])c4)ncnc32)[C@H](O)[C@@H]1O (stereo partly specified) | Ki (Adenosine receptor A3 [4]): 19 nM
24 | 28 | 794 | 1000 | CNC(=O)[C@H]1OC(n2cnc3c(NCc4cccc(N)c4)ncnc32)[C@H](O)[C@@H]1O (stereo partly specified) | Ki (Adenosine receptor A3 [4]): 28 nM
25 | 14 | 95 |  | CCNC(=O)[C@H]1O[C@@H](n2cnc3c(NCc4ccccc4)ncnc32)[C@H](O)[C@@H]1O | 
26 | 15 | 17.7 |  | CCNC(=O)[C@H]1O[C@@H](n2cnc3c(NCc4cccc(C)c4)ncnc32)[C@H](O)[C@@H]1O | 
27 | 37 | 597 |  | CNC(=O)[C@H]1O[C@@H](n2cnc3c(NCc4ccccc4)ncnc32)[C@H](O)[C@@H]1O | 
28 | 160 | 2730 | 478 | CNC(=O)[C@H]1OC(n2cnc3c(NCc4ccc(Cl)cc4)ncnc32)[C@H](O)[C@@H]1O (stereo partly specified) | Ki (Adenosine receptor A3 [4]): 17 nM
29 | 25 | 559 | 916 | CNC(=O)[C@H]1O[C@@H](n2cnc3c(NCc4cccc(Cl)c4)ncnc32)[C@H](O)[C@@H]1O | Ki (Adenosine receptor A3 [9]): 21.9 nM
30 | 17 | 19 |  | CCNC(=O)[C@H]1O[C@@H](n2cnc3c(NCc4cccc(Cl)c4)ncnc32)[C@H](O)[C@@H]1O | 
31 | 8.6 | 24 |  | CCNC(=O)[C@H]1O[C@@H](n2cnc3c(NCc4ccccc4[N+](=O)[O-])ncnc32)[C@H](O)[C@@H]1O | 
32 | 42 | 415 |  | CNC(=O)[C@H]1O[C@@H](n2cnc3c(NCc4cccc(C)c4)ncnc32)[C@H](O)[C@@H]1O | 
33 | 3 | 32 |  | CCNC(=O)[C@H]1O[C@@H](n2cnc3c(NCc4cccc(F)c4)ncnc32)[C@H](O)[C@@H]1O | 
34 | 3 | 21 |  | CCNC(=O)[C@H]1O[C@@H](n2cnc3c(NCc4ccccc4OC)ncnc32)[C@H](O)[C@@H]1O | 
35 | 8.2 | 7.2 |  | CCNC(=O)[C@H]1O[C@@H](n2cnc3c(NCc4cccc(I)c4)ncnc32)[C@H](O)[C@@H]1O | 
36 | 4 | 35 |  | CCNC(=O)[C@H]1O[C@@H](n2cnc3c(NCc4cccc([N+](=O)[O-])c4)ncnc32)[C@H](O)[C@@H]1O | 
37 | 200 | 2460 | 516 | CNC(=O)[C@H]1OC(n2cnc3c(NCc4ccc(Br)cc4)ncnc32)[C@H](O)[C@@H]1O (stereo partly specified) | Ki (Adenosine receptor A3 [4]): 12 nM
38 | 3.2 | 190 | 341 | CCNC(=O)[C@H]1O[C@@H](n2cnc3c(N)[n+](Cc4ccc([N+](=O)[O-])cc4)cnc32)[C@H]([O-])[C@@H]1O | Ki (Adenosine receptor A3 [9]): 60 nM
39 | 64 |  |  | CCNC(=O)[C@H]1O[C@@H](n2cnc3c(NCc4ccc([N+](=O)[O-])cc4)ncnc32)[C@H](O)[C@@H]1O | 
